Data: patent publication US20100144773A1 (priority 2007, published 2010)
Like-named read-outs stand apart in the source and are kept apart here.

Tested on: male Wistar rats injected with beta-amyloid peptide 25-35 into NBM
Details: 1 mg/kg once a day for 7 days from day 16 after amyloid injection, retention trial 24 h after acquisition, cut-off 180 s, n=8, control 48 ± 11
Description: Beta-amyloid was administered bilaterally into NBM of male Wistar rats in dose of 2 μg per each side. […] Control rats received saline intranasally. On day next to the last day of the treatment, passive avoidance performance in rats was tested for two consecutive days. A two-compartment, step-through, passive avoidance apparatus consisting of illuminated (25×40×25 cm) and dark (25×40×25 cm) compartments attached to an electrified grid floor and separated by a guillotine door (8×8 cm) was used. In the acquisition trial, the rat was placed in the illuminated compartment in a position its tail directed to the closed door for 2 min to habituate to the apparatus. The guillotine door was opened and time to enter to dark compartment was recorded. When the rat entered to dark compartment completely (four foots in dark compartment), the guillotine door was closed and the rat was delivered an electrical shock of 0.8 mA for 3 sec through the grid floor. After the shock, the rat was immediately placed in home cage. In the retention trial, conducted 24 h after the acquisition trial, the rat was placed in the illuminated compartment and the retention latency to enter into the dark compartment was recorded until 180 s had elapsed. […] Data are presented as retention latency mean±SD (n=8).

| Structure (SMILES) | Latency (retention latency to enter the dark compartment, mean±SD) (intranasally) [s] | Latency (retention latency to enter the dark compartment, mean±SD) (intraperitoneally) [s] |
| --- | --- | --- |
| C[N+](C)(C)CCO.O=C([O-])CCC(=O)O [Compound of formula (I)] | 103 ± 18 | 55 ± 18 |
| C[N+](C)(C)CCO.O=C([O-])CCC(=O)[O-].[Na+] [Compound of formula (III)] | 87 ± 19 | 53 ± 28 |
| C[N+](C)(C)CCO.O=C([O-])CCC(=O)[O-].[K+] [Compound of formula (IV)] | 65 ± 16 | 49 ± 17 |
